Laboratory results: US20050245397A1, “Use of nickel to correct growth disorders in plants” (priority 2004, published 2005)
Read-outs that look alike come from different tables or passages of the source.

Columns and labels:
[1] = tested on: severely mouse-eared 'Desirable' pecan trees; assay type: in vivo; conditions: October foliar spray till run-off, NiSO4.6H2O about 3.5 g/L or CuSO4.5H2O about 4 g/L with urea and surfactant, orchard transplants, rated following May, scale 1 = no symptoms to 10 = most severe
[2] = tested on: 1-year-old 'Desirable' pecan seedlings potted in mouse-ear orchard soil; experiment: October foliar copper or nickel at 0-8X on potted greenhouse pecan seedlings, mouse-ear rated in spring; assay type: in vivo, pecan [Carya illinoinensis (Wangenh.) K. Koch]; conditions: autumn foliar copper 1X-8X, X = about 1.98 g copper sulfate per liter
pecans with mouse-ear = experiment: Inventors' orchard observations of soil or foliar copper, phosphorus, sulfur on mouse-ear; assay type: in vivo, pecan [Carya illinoinensis (Wangenh.) K. Koch]; conditions: for effect on mouse-ear, soil application of high amounts: 1st generation orchard site
[3] = tested on: pecan trees exhibiting severe mouse-ear; assay type: in vivo; conditions: early April foliar spray at late parachute stage, treatments as in Example 8, orchard transplants, subsequent shoot growth, scale 1-10
[4] = tested on: pecan seedlings exhibiting severe nickel deficiency, i.e., mouse-ear; assay type: in vivo, pecan [Carya illinoinensis (Wangenh.) K. Koch]; conditions: foliar spray in the spring during bud break, tested 0-1000 ppm

## O.O.O.O.O.O=S(=O)([O-])[O-].[Cu+2] [Copper, CuSO4.5H2O]
[1]
  Mouse-ear Severity (Class): 7.6 a Class
[1]; listed as copper
  Mouse-ear Severity (Class): 7.6 Class
[2]
  effect on mouse-ear severity the following spring: failed to correct mouse-ear and actually increased severity of mouse-ear as the concentration of applied copper increased
Pecans with mouse-ear; 2nd generation site
  effect on mouse-ear, soil applied at time of transplanting: corrects mouse-ear on one 2nd generation site
Pecans with mouse-ear; in vivo
  effect on mouse-ear, foliar applications: little or no curative influence on mouse-ear severity
Pecans with mouse-ear; trees with mild to moderate mouse-ear on a 1st generation site
  effect on mouse-ear, topical application to the soil: largely cured of mouse-ear by the 3rd year
[3]
  Mouse-ear Severity (Class): 8.1 a Class
[3]; listed as copper
  Mouse-ear Severity (Class): about 8.1 Class

## [P] [phosphorus]
Pecans with mouse-ear
  effect on mouse-ear, soil application of high amounts: corrected mouse-ear symptoms three years after application

## S1SSSSSSS1 [sulfur]
Pecans with mouse-ear
  effect on mouse-ear, soil application of high amounts: corrected mouse-ear symptoms three years after application

## nickel lignosulfonate
[4]
  nickel concentration at which foliar application corrected mouse-ear / nickel deficiency: ≥ 10 ppm
